Key:
[1] = Selectivity is the ratio of IC50 of mouse inducible NOS and Rat brain constitutive NOS
[2] = target: T1, Nitric oxide synthase, inducible (Mus musculus, UniProt P29477); test: Tested for inhibition of mouse inducible nitric oxide synthase
T1 sequence (P29477 whole entry): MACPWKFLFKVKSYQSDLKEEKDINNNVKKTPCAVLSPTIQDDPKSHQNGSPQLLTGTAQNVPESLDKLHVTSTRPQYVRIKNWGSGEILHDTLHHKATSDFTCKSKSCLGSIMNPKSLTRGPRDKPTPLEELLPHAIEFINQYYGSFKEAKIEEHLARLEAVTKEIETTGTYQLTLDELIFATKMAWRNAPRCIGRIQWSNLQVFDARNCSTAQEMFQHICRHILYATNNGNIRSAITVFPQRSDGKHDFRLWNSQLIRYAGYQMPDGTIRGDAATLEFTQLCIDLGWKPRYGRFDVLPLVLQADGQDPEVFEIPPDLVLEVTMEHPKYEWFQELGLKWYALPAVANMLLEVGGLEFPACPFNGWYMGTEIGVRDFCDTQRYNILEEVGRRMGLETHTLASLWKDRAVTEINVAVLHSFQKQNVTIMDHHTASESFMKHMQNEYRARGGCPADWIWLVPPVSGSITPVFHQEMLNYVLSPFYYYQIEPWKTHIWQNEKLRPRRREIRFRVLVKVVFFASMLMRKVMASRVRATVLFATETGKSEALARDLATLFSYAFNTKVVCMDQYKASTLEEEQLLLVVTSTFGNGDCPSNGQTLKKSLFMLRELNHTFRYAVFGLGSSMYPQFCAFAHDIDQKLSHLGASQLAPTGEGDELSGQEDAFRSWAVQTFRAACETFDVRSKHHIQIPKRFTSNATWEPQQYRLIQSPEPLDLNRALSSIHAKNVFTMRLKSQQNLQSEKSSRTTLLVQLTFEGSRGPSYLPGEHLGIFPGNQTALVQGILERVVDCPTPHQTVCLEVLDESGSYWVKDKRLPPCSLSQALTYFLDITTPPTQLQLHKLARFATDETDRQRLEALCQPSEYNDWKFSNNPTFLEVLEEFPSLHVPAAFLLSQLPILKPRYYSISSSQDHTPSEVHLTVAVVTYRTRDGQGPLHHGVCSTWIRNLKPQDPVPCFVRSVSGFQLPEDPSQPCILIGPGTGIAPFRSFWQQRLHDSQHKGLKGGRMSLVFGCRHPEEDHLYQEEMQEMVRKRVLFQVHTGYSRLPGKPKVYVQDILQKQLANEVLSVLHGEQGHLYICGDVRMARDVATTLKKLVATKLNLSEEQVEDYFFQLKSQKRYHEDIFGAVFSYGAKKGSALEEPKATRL

Nitric oxide synthase 1 = Nitric oxide synthase 1 (Rattus norvegicus, UniProt P29476); test: Tested for inhibition of rat brain […] nitric oxide synthase
Sequence of Nitric oxide synthase 1 (P29476 whole entry): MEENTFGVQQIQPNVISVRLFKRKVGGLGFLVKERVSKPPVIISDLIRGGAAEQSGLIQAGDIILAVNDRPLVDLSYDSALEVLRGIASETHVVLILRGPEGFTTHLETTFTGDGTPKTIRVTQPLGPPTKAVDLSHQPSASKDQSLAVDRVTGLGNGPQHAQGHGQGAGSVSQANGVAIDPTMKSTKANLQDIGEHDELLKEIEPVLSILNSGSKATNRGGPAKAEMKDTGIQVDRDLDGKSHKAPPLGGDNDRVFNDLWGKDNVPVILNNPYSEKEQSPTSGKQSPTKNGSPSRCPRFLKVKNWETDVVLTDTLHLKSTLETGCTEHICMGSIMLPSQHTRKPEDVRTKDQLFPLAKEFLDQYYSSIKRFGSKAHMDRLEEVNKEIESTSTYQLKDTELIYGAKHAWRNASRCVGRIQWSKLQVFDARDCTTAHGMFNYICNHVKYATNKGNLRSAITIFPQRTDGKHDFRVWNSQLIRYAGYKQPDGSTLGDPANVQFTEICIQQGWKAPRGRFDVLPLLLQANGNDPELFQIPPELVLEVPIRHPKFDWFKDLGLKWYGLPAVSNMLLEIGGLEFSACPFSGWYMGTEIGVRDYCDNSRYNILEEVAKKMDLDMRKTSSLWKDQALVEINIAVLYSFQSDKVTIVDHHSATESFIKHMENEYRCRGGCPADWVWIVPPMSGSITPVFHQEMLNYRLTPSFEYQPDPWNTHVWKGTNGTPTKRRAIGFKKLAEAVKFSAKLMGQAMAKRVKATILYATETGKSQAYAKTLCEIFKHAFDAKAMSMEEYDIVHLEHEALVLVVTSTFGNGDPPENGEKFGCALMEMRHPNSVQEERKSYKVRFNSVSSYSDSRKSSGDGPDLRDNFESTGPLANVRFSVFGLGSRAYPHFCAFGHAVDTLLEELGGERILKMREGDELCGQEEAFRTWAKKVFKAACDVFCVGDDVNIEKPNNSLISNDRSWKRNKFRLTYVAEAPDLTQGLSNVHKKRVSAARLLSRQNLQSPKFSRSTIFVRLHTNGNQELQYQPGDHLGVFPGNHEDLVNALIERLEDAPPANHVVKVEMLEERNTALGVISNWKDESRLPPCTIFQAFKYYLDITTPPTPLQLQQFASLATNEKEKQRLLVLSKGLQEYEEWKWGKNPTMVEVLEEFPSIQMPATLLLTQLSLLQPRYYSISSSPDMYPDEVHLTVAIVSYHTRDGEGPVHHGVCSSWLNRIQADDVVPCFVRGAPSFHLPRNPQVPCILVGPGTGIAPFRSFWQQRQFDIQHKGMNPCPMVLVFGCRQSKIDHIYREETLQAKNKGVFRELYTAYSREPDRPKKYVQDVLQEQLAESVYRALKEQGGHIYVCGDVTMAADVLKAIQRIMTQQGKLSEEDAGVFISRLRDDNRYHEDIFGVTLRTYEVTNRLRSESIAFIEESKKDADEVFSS

Selectivity [1] | IC50 [2] [µM] | IC50 (Nitric oxide synthase 1) [µM] | SMILES
8 | 336 | 2800 | CC(=N)NCCCC[C@@H](N)C(=O)O
11 | 73 | 808 | CC(=N)NCCCCCC(N)C(=O)O (racemic)
28 | 3.3 | 92 | CC(=N)NCCCC[C@H](N)C(=O)O [L-NIL]

The next lines start with the molecule.

SMILES | Selectivity [1] | IC50 [2] [µM] | IC50 (Nitric oxide synthase 1) [µM]
CC(=N)NCCC[C@H](N)C(=O)O [L-NIO] | – | 3.9 | –
N=C(NCCC[C@H](N)C(=O)O)N[N+](=O)[O-] [NITROARGININE] | – | 0.5 | –

Source: ChEMBL document CHEMBL1127403, “L-N6-(1-iminoethyl)lysine: a selective inhibitor of inducible nitric oxide synthase” (J Med Chem, 1994)
